In brackets after ≈: the same amount, converted by molar mass. Non-standard residues stand in square brackets, D forms with d. Residues, ends and D or L forms follow the SMILES beside them. NMeY = CN[C@@H](Cc1ccc(O)cc1)C(=O)O; dNMeF = CN[C@H](Cc1ccccc1)C(=O)O; Sar = CNCC(=O)O

The term solubility denotes the concentration that dissolves in the medium under given conditions. A low value points to a poorly soluble substance.

The data set in a line: physchem. Conditions: aqueous.

As for `CC[C@H](C)[C@@H]1NC(=O)[C@H](Cc2ccc(O)cc2)N(C)C(=O)[C@H](Cc2ccccc2)NC(=O)CN(C)C(=O)[C@@H]2CCCN2C(=O)[C@@H](Cc2ccccc2)N(C)C(=O)[C@H](CC(C)C)NC1=O` [Compound 1, cordyheptapeptide A] (cyclo(F[NMeY]IL[dNMeF]P[Sar])), the solubility was 3.9 µM (≈ 3.43 µg/mL).

The record behind these values is article PMC8545353 (ACS chemical biology, 2021).
